Source: patent US11203582B2, “Benzamide derivatives for inhibiting endoplasmic reticulum (ER) stress” (The Board of Regents of the University of Oklahoma, priority 2017, dated 2021)
Like-named read-outs stand apart in the source and are kept apart here.

Test system: INS-1 cells
Test: Cell survival assay, intracellular ATP (CellTiter-Glo), INS-1 cells treated with Tm
Type: cell-based, rat
Conditions: for EC50: read-out: EC50; for improvement of EC50 value over the corresponding ethylene derivative: methylene vs ethylene linker (9e vs 8d; 11d vs 11b)
Description: A structure-activity-relationship (SAR) study was thus conducted to improve the weak potency of lead compound 1. Newly synthesized or commercially available compounds were tested for their β-cell-protective activity against ER stress in rat INS-1 β-cells. […] The maximum activities and the concentrations that reach half-maximal activity (EC50) of the compounds were evaluated by the degree of increase in viability of INS-1 cells co-treated with the compounds in the presence of Tm compared with Tm treatment alone. Maximum activity value in the tables is reported as % rescue from Tm (0.1 μg/mL)-induced reduction of cell viability. The values for Tm treatment alone and control (DMSO, without Tm) treatment are designated as 0% and 100%, respectively in all tables. EC50 values (the concentrations that reach half-maximal activity) for INS-1 cell viability were calculated with GraphPad Prism from the data of ten 2-fold serial titration points in all tables. All experiments were performed in triplicate in all tables.
INS-1 cells were cultured in RPMI 1640 (Corning, N.Y., USA) supplemented with 10% FBS (Atlanta Biologicals, Norcross, Ga.), HEPES (10 mM, Life Technologies, CA, USA), sodium pyruvate (1 mM, Corning), 2-mercaptoethanol (50 μM, Sigma, St Louis, Mo., USA) and antibiotics (100 UI/mL penicillin and 100 μg/mL streptomycin, Corning). βTC6 cells were cultured in DMEM (Corning) with 15% FBS, sodium pyruvate (1 mM, Corning), non-essential amino acids (1 mM, Thermo, Ill., USA), GlutaMAX (1 mM, Life Technologies) and antibiotics (100 UI/mL penicillin and 100 μg/mL streptomycin). All cells were grown at 37° C. in a humidified 5% CO2 atmosphere.
INS-1 cells or βTC6 cells were seeded at 3×10^3 cells/well in a 384-well plate and treated with compounds at the indicated concentrations. After 3 d treatment, the medium was aspirated and 20 μL/well of CellTiter-Glo reagent (Promega, WI, USA) was added for the detection of intracellular ATP levels. Cell viability was measured with an EnVision multilabel plate reader (PerkinElmer, MA, USA).

[1] = INS-1 cells, Tm-induced ER stress
[2] = Table 2, INS-1 cell viability, Tm 0.1 μg/mL, 72 h
[3] = Table 2, INS-1 cells, Tm 0.1 μg/mL, 72 h, Tm alone 0%, DMSO control 100%
[4] = Table 3, INS-1 cells, Tm 0.1 μg/mL, 72 h, Tm alone 0%, DMSO control 100%
[5] = Table 3, INS-1 cell viability, Tm 0.1 μg/mL, 72 h
[6] = Table 4, INS-1 cell viability, Tm 0.1 μg/mL, 72 h
[7] = Table 4, INS-1 cells, Tm 0.1 μg/mL, 72 h, Tm alone 0%, DMSO control 100%
[8] = Table 5, INS-1 cell viability, Tm 0.1 μg/mL, 72 h
[9] = Table 5, INS-1 cells, Tm 0.1 μg/mL, 72 h, Tm alone 0%, DMSO control 100%

O=C(NCCc1cccc(Cl)c1)c1ccc2c(c1)OCCO2 [Compound 1, N-(3-chlorophenethyl)-2,3-dihydrobenzo[b][1,4]dioxine-6-carboxamide]
maximum activity (β-cell-protective activity) [1]: 42% | EC50 (Rattus norvegicus, INS1, INS-1 cells, Tm-induced ER stress): 21 µM | EC50 (Rattus norvegicus, INS1, Table 1, INS-1 cell viability, Tm 0.1 μg/mL, 72 h): 21 ± 5.7 µM | Emax (Rattus norvegicus, INS1, Table 1, INS-1 cells, Tm 0.1 μg/mL, 72 h, Tm alone 0%, DMSO control 100%, read-out: Maximum activity (% rescue)): 42%

COc1ccc(C(=O)NCCc2cccc(Cl)c2)cc1OC [Compound 8h]
EC50 (Table 1, INS-1 cell viability, Tm 0.1 μg/mL, 72 h): 24 ± 2.1 µM | Maximum activity (% rescue) (Table 1, INS-1 cells, Tm 0.1 μg/mL, 72 h, Tm alone 0%, DMSO control 100%): 46% ± 17%

O=C(NCc1ccccc1Cl)c1ccc2c(c1)OCCO2 [Compound 9a]
EC50 [2]: 25 ± 6.9 µM | Maximum activity (% rescue) [3]: 43% ± 12%

O=C(NCc1ccccc1Br)c1ccc2c(c1)OCCO2 [Compound 9b]
EC50 [2]: 25 ± 2.1 µM | Maximum activity (% rescue) [3]: 38% ± 14%

O=C(NCc1cccc(Cl)c1)c1ccc2c(c1)OCCO2 [Compound 9c]
EC50 [2]: 9.5 ± 1.2 µM | Maximum activity (% rescue) [3]: 57% ± 11%

O=C(NCc1cccc(Br)c1)c1ccc2c(c1)OCCO2 [Compound 9d]
EC50 [2]: 5.5 ± 0.7 µM | Maximum activity (% rescue) [3]: 69% ± 9%

O=C(NCc1ccc(Cl)cc1)c1ccc2c(c1)OCCO2 [Compound 9e]
maximum activity (β-cell-protective activity) [1]: 69% | EC50 [1]: 2.8 µM | Maximum activity (% rescue) [3]: 69% ± 12% | improvement of EC50 value over the corresponding ethylene derivative: ~6 fold

O=C(NCc1ccc(Cl)c(Cl)c1)c1ccc2c(c1)OCCO2 [Compound 9f]
EC50 [2]: 3.6 ± 0.9 µM | Maximum activity (% rescue) [3]: 68% ± 10%

Cc1ccccc1C(=O)NCCc1ccccc1 [Compound 10a]
Maximum activity (% rescue) [4]: 6% ± 5%

CC(C)Sc1ccccc1C(=O)NCCc1ccccc1 [Compound 10b]
EC50 [5]: > 30 µM | Maximum activity (% rescue) [4]: 30% ± 8%

O=C(NCCc1ccccc1)c1cccc(F)c1 [Compound 10c]
Maximum activity (% rescue) [4]: <0 % rescue

O=C(NCCc1ccccc1)c1cccc([N+](=O)[O-])c1 [Compound 10d]
Maximum activity (% rescue) [4]: <0 % rescue

Nc1cccc(C(=O)NCCc2ccccc2)c1 [Compound 10e]
Maximum activity (% rescue) [4]: <0 % rescue

CCOc1cccc(C(=O)NCCc2ccccc2)c1 [Compound 10f]
EC50 [5]: 26 ± 4.5 µM | Maximum activity (% rescue) [4]: 49% ± 11%

CS(=O)(=O)Nc1cccc(C(=O)NCCc2ccccc2)c1 [Compound 10g]
EC50 [5]: 25 ± 2.1 µM | Maximum activity (% rescue) [4]: 24% ± 8%

Cc1ccc(C(=O)NCCc2ccccc2)cc1 [Compound 10h]
EC50 [5]: 20 ± 5.4 µM | Maximum activity (% rescue) [4]: 25% ± 5%

C#CCOc1ccc(C(=O)NCCc2ccccc2)cc1 [Compound 10i]
EC50 [5]: > 30 µM | Maximum activity (% rescue) [4]: 54% ± 8%

CN(C)S(=O)(=O)c1ccc(C(=O)NCCc2ccccc2)cc1 [Compound 10j]
EC50 [5]: 19 ± 2.1 µM | Maximum activity (% rescue) [4]: 37% ± 6%

O=C(NCCc1ccccc1)c1ccc(CN2CCCC2)cc1 [Compound 10k]
maximum activity (β-cell-protective activity) [1]: 31% | EC50 [5]: 11 ± 1.9 µM | Maximum activity (% rescue) [4]: 31% ± 7%

O=C(NCCc1ccccc1)c1ccc(CN2CCCCC2)cc1 [Compound 10l]
maximum activity (β-cell-protective activity) [1]: 87% | EC50 [1]: 21 µM | EC50 [5]: 21 ± 3.5 µM | Maximum activity (% rescue) [4]: 87% ± 9% | EC50 [6]: 21 ± 3.5 µM | Maximum activity (% rescue) [7]: 87% ± 6%

O=C(NCCc1ccccc1)c1ccc(Cl)c(Cl)c1 [Compound 10m]
EC50 [5]: 17 ± 6.1 µM | Maximum activity (% rescue) [4]: 42% ± 11%

COc1ccc(C(=O)NCCc2ccccc2)cc1C [Compound 10n]
EC50 [5]: 15 ± 3.2 µM | Maximum activity (% rescue) [4]: 56% ± 8%

O=C(NCCc1ccccc1)c1ccc(F)c(F)c1F [Compound 10o]
EC50 [5]: 9.9 ± 2.1 µM | Maximum activity (% rescue) [4]: 23% ± 6%

O=C(NCCc1ccccc1)c1cc(F)c(F)c(F)c1F [Compound 10p]
Maximum activity (% rescue) [4]: <0 % rescue

O=C(NCCc1ccc(Cl)cc1)c1ccc(CN2CCCCC2)cc1 [Compound 11a]
EC50 [6]: 21 ± 4.2 µM | Maximum activity (% rescue) [7]: 82% ± 10%

O=C(NCCc1ccc(Cl)c(Cl)c1)c1ccc(CN2CCCCC2)cc1 [Compound 11b]
EC50 [1]: 24 ± 2.7 µM | Maximum activity (% rescue) [7]: 71% ± 11%

O=C(NCc1ccc(Cl)cc1)c1ccc(CN2CCCCC2)cc1 [Compound 11c]
EC50 [6]: 9.5 ± 1.1 µM | Maximum activity (% rescue) [7]: 77% ± 7%

O=C(NCc1ccc(Cl)c(Cl)c1)c1ccc(CN2CCCCC2)cc1 [Compound 11d]
EC50 [1]: 1.8 ± 0.2 µM | Maximum activity (% rescue) [7]: 78% ± 10% | improvement of EC50 value over the corresponding ethylene derivative: 13 fold

O=C(NCc1ccc(Cl)cc1)c1ccccc1CN1CCCCC1 [Compound 12a]
EC50 [8]: 6.9 ± 1.2 µM | Maximum activity (% rescue) [9]: 73% ± 13%

O=C(NCc1ccccc1)c1cccc(CN2CCCCC2)c1 [Compound 12b]
EC50 [8]: 0.352 ± 0.062 µM | Maximum activity (% rescue) [9]: 95% ± 8%

O=C(NCc1ccccc1Cl)c1cccc(CN2CCCCC2)c1 [Compound 12c]
EC50 [8]: 2.04 ± 0.18 µM | Maximum activity (% rescue) [9]: 93% ± 7%

O=C(NCc1cccc(Cl)c1)c1cccc(CN2CCCCC2)c1 [Compound 12d]
EC50 [8]: 0.405 ± 0.057 µM | Maximum activity (% rescue) [9]: 90% ± 11%

O=C(NCc1ccc(Cl)cc1)c1cccc(CN2CCCCC2)c1 [Compound 12e]
EC50 [8]: 0.24 ± 0.06 µM | Maximum activity (% rescue) [9]: 93% ± 13%

O=C(NCc1ccccc1Cl)c1ccc(CN2CCCCC2)cc1 [Compound 12f]
EC50 [8]: 13 ± 1.6 µM | Maximum activity (% rescue) [9]: 87% ± 15%

O=C(NCc1cccc(Cl)c1)c1ccc(CN2CCCCC2)cc1 [Compound 12g]
EC50 [8]: 2.2 ± 0.3 µM | Maximum activity (% rescue) [9]: 80% ± 9%

O=C(NCc1cccc(Br)c1)c1ccc(CN2CCCCC2)cc1 [Compound 12h]
EC50 [8]: 4.9 ± 0.7 µM | Maximum activity (% rescue) [9]: 81% ± 12%

COc1cccc(CNC(=O)c2cccc(CN3CCCCC3)c2)c1 [Compound 13a]
EC50 [8]: 0.964 ± 0.135 µM | Maximum activity (% rescue) [9]: 92% ± 10%

COc1ccc(CNC(=O)c2cccc(CN3CCCCC3)c2)cc1 [Compound 13b]
EC50 [8]: 1.12 ± 0.21 µM | Maximum activity (% rescue) [9]: 93% ± 5%

O=C(NCc1cccc(C(F)(F)F)c1)c1cccc(CN2CCCCC2)c1 [Compound 13c]
EC50 [8]: 0.246 ± 0.043 µM | Maximum activity (% rescue) [9]: 91% ± 14%
